pIC50, pKi: −log10 of the molar value.
Tests used:
[1] = Stability in mouse liver homogenate (residual inhibition of purified human calpain-2); type: in vitro ADME; conditions: B-cyclodextrin formulation, read-out: Estimated half-life in mouse liver homogenate (converted)
Description: Aliquots were taken and the degree of inhibition of purified human calpain-2 was measured. Results were normalized to the maximum degree of inhibition (100%) measured at t0.

[2] = PK in mice after iv injection of liposomal NA112: brain; type: in vivo; conditions: mice iv 10 mg/kg liposomes, 24 hr; BLQ: below the limit of quantification, assay sensitivity 2 ng/ml
[3] = target: T1, recombinant human calpain-2 (hcalpain-2) (Homo sapiens, UniProt P17655); assay: Inhibition of recombinant human calpain-2; type: biochemical
T1 sequence (P17655 1-700): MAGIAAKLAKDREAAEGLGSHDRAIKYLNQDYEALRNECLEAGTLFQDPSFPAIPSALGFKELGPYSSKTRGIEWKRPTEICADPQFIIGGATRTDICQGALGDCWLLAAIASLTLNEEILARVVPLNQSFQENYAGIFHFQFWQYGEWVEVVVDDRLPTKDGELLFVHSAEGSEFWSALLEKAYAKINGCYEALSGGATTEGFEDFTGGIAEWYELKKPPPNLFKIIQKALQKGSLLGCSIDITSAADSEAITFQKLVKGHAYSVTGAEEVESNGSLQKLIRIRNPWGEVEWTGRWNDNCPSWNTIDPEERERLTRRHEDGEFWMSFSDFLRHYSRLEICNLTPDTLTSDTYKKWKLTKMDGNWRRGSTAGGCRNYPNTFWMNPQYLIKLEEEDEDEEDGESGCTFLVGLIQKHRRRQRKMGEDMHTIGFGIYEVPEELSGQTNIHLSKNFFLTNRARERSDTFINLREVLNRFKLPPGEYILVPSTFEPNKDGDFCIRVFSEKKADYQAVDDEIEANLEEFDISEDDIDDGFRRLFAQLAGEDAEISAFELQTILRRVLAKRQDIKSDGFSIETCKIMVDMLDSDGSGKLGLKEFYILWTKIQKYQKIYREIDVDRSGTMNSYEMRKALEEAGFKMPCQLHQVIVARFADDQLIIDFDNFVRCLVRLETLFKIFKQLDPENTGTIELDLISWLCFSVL
T1 sequence (P04632 1-268 partner): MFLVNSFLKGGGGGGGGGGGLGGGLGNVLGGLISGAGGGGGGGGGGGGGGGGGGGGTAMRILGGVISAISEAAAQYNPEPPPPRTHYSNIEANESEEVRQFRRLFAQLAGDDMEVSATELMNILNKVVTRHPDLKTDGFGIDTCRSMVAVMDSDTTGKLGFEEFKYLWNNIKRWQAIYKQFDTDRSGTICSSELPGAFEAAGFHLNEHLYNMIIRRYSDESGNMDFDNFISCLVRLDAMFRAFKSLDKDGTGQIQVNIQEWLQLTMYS
Description: Various concentrations of NA112 in the liposomal formulation were incubated with human calpain-1 (purified from erythrocytes, ecalpain-1) or a recombinant human calpain-2 (hcalpain-2) and calpain activity assayed as in FIG. 1. IC50 were determined and transformed into Ki values (FIG. 10A, 10B). Values previously obtained with NA112 dissolved in DMSO are shown for comparison (FIG. 10B).
Cerebellar homogenates from wild-type (WT) or calpain-1 Knock-out (KO) mice were incubated with 20 μM calcium to activate calpain-1 or with 2 mM calcium to activate calpain-2, respectively, and increasing concentrations of NA184.
Like in NA112, there are 2 chiral centers in NA184. The inhibitory activity of the compounds NA184A (S-S isomer) and NA184B (S-R stereoisomer) against erythrocyte human calpain-1 (ecalpain-1) and recombinant human calpain-2 (hcalpain-2) were determined.

[4] = target: T2, calpain-2 (Rattus norvegicus, UniProt Q07009); assay: Calpain-2 activity in brain after TBI in rats; type: in vivo; conditions: 1 mg/kg i.p. at 1 h and 8 h after TBI, 24 h after TBI
T2 construct: from tissue; host or cells: rat brain after TBI
T2 sequence (Q07009 1-700): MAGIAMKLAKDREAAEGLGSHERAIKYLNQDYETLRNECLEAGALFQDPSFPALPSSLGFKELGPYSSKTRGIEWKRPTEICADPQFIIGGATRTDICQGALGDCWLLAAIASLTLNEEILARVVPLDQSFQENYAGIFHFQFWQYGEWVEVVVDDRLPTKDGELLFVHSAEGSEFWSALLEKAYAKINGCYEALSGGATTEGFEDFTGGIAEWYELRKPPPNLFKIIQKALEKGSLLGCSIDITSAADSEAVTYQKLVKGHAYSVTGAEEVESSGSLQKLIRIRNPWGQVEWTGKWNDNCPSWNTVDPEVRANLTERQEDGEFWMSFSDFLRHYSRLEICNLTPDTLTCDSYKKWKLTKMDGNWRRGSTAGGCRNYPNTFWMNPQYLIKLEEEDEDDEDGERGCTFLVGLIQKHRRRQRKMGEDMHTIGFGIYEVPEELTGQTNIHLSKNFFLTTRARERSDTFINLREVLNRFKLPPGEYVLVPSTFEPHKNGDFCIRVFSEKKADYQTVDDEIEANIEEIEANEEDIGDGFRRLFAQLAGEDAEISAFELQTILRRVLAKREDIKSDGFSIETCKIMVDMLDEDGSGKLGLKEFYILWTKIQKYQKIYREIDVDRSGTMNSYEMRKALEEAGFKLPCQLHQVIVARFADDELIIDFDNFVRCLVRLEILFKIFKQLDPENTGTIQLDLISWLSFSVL
T2 sequence (Q64537 1-270 partner): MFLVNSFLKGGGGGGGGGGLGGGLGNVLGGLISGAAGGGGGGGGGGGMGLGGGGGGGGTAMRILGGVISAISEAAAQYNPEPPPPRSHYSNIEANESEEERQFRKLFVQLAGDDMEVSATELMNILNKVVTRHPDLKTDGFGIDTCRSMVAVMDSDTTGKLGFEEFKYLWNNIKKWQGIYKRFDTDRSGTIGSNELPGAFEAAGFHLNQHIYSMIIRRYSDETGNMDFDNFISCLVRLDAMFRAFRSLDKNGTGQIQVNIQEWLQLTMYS
Description: We also performed the same model of TBI in male and female mice and in male and female rats. In all cases, NA184 was injected i.p. at 1 mg/kg. For the rat experiments, NA184 was injected twice at 1 h and 8 h after TBI. Animals were sacrificed 24 h after TBI and calpain activity was assayed in brain and cell death was analyzed in cortex. […] In addition, there was a highly significant correlation between calpain-2 activity and cell death in rats (FIG. 23). R^2 was 0.61 and p<0.005.

CCC(NC(=O)[C@H](CC(C)C)NC(=O)NCc1ccccc1)C(=O)C(=O)NCc1cc(OC)cc(OC)c1 (mixture of isomers) [NA112, (2S)-2-(3-benzylureido)-N-(1-((3,5-dimethoxybenzyl)amino)-1,2-dioxopentan-3-yl)-4-methylpentanamide]
half-life [1]: 15 h
Brain concentration A1 [2]: BLQ
Brain concentration A2 [2]: BLQ
Brain concentration Mean [2]: BLQ

CCC(NC(=O)[C@H](CC(C)C)NC(=O)NCc1ccccc1)C(=O)C(=O)NCc1cccc(Cl)c1OC (stereo partly drawn) [NA184, (2S)-2-(3-benzylureido)-N-(1-((3-chloro-2-methoxybenzyl)amino)-1,2-dioxopentan-3-yl)-4-methylpentanamide]
pIC50 [3]: 7.07
pKi [3]: 7.27
Calpain-2 inhibition in brain, male and female rats [4]: significantly inhibited calpain-2
